Experimental data reported in PMC10668861 (2023).

System: F21D (DNA, G4) GGGTTAGGGTTAGGGTTAGGG
Assay: FRET melting
Details: 5 mM K+, 95 mM Li+; 10 mM lithium cacodylate, pH 7.2; 0.2 µM DNA, 4 µM compound

- ΔTm: 14 ± 1 °C
Structure (SMILES): [Ru+2].c1ccc(-c2ccccn2)nc1.c1ccc(-c2ccccn2)nc1.c1ccc2nc3c4cccnc4c4ncccc4c3nc2c1
